Measured values as given in patent US20250213587A1, “ITK INHIBITORS FOR INCREASING TH1 CELL ACTIVITY” (Corvus Pharmaceuticals, Inc., priority 2022, published 2025).

Assays:
S6 phosphorylation = experiment: pS6 flow cytometry after CD3/28 crosslinking; type: cell-based; details: Homo sapiens, mean of three donors
Description: PBMCs were pelleted (400×g at 4° C. for 5 minutes) and resuspended in RPMI+10% heat-inactivated fetal bovine serum (FBS) at 14.3×10^6 cells/mL; 70 μL (1×10^6 cells) were plated in a 96 well U bottom plate and incubated at 37° C. for 1 hour. […] CD3-biotin and CD28-biotin were prepared together at 10 μg/mL each, which is 10× the final concentration; 10 μL antibodies were added to the cells and incubated at 37° C. for 15 minutes. Avidin was prepared at 500 μg/mL, which is 10× the final concentration; 10 μL avidin were added to the cells and incubated at 37° C. for 5 minutes to induce TCR crosslinking. A total volume of 100 μL cells were transferred to 200 μL warm 2.4% paraformaldehyde (PFA) in deep well blocks. Pipetting was performed using a liquidator 96 to add reagents to the entire plate with uniform timing. Cells were fixed with PFA at 37° C. for 10 minutes. Cells were pelleted (1000× g for 5 minutes), and the plate was aspirated leaving approximately 100 μL residual volume. The plate was then vigorously vortexed for 10 seconds, and 1 mL −20° C. methanol was added to each well. Cells were stored at […] for approximately 1 month. […] Inhibition was measured by construction of a concentration response curve of the Log base 10 transformed values of the molar concentration of inhibitor. […]

[1] = tested on: IL-4 production by CD4+ T cells; experiment: T cell activation, IL-4+CD4+ T cells; type: cell-based, human
Description: Fresh PBMCs from healthy human donors were centrifuged and reconstituted at 0.312×10^6 cells/mL in RPMI 1640 medium+10% heat-inactivated FBS+1× penicillin streptomycin and 100,000 cells/well were distributed into 24 well tissue culture plate. Cells were incubated at 37° C. for 1 hour, followed by the addition of CPI 596 or vehicle. The cells were then incubated at 37° C. for 1 hour, followed by the addition of […] anti CD3 and anti CD28 (both eBioscience). Cells were incubated at 37° C. for 6 days, with supplemental media supplied on day 3. On Day 6, the cells were transferred to a 96 deep well plate, washed, and treated with 50 nM phorbol 12-myristate 13-acetate, 1 μg/mL ionomycin, and 1 μg/mL brefeldin A, and then incubated at 37° C. for 4 hours. The cells were then fixed and permeabilized using eBioscience Fox3/transcription factor staining buffer. Cells were treated with Fc block (BioLegend) and then stained with CD3 BV605, CD45RA PerCP-Cy5.5, Tbet PE, IFNγ AF488, IL-4 APC (BioLegend), CD4 PE-Cy7, cPARP AF700 (BD Biosciences), and CD8 Krome Orange (Beckman Coulter). For flow cytometry, 300,000 cells were acquired on Cytoflex (Beckman Coulter). Data were analyzed using Flowjo software. The percentage of CD4^+ T cells that were positive for IFNγ and IL 4 were reported.

Q: What does the source list for `C=CC(=O)N1CCCN(C(=O)c2cc(Sc3cnc(NC(=O)C4CC4)s3)c(C)cc2OC)C[C@H]1C` [CPI-818]?
A: IC50 (S6 phosphorylation): 96 nM; IL-4 production ([1]; 10 μM): complete inhibition; inhibition at 1 µM ([1]; Homo sapiens, CD4+ T, 1 μM, average, read-out: inhibition of percentage of CD4+ T cells that produced IL-4): 64%
